# Patent US9492382B2, “Hyperbranched polyester having a hydrophobic core for solubilizing active ingredients of low solubility” (BASF SE, priority 2009, dated 2016)
# Assay: physchem
# Conditions: pH 7, aqueous buffer, thermodynamic from solid
# Experimental: 2 g of polymer were weighed out into a 50 ml glass beaker. Then 0.2 g of each active ingredient was weighed out into the batch to give a supersaturated solution. […] The mixture was then stirred at room temperature for 72 hours, using a magnetic stirrer. After a rest time of one hour, excess (i.e., unsolubilized) active ingredient was removed by filtration. The resulting clear or opaque solution was then analyzed for its active ingredient content by means of UV spectroscopy or HPLC.
# The results are compiled in tables 2 and 3.
smiles,measurement,value
Clc1ccccc1C(c1ccccc1)(c1ccccc1)n1ccnc1 [Clotrimazole],solubility at 72 h,< 100 µg/mL
